Source: article PMC5560554, “Targeting of CDK9 with indirubin 3’-monoxime safely and durably reduces HIV viremia in chronically infected humanized mice” (PLoS ONE, 2017)
Values joined by “and” are separate entries in the source; they are usually repeats but may differ in a detail not shown here. Identical values can stand only once.

What was measured:
[1] = Pharmacokinetics of IM in NSG mice (single i.p. injection, plasma by HPLC); format: in vivo; details: for Conc (plasma IM), individual mice: 40 mg/kg
Description: Fasting, female NSG mice (n = 16) were injected with 40 mg/kg IM via i.p. Blood samples were obtained pre-dose (30 minutes before compound injection) and at 5, 15, 30, 60, 120, 180, 240 and 300 minutes after injection using a sparse sampling design (n = 2 samples per mouse, n = 4 samples per time point). Separated plasma was further extracted and processed for analysis, and IM concentrations determined using HPLC analysis. In brief, sample processing involved extraction of plasma (30 μL) with 400 μL acetonitrile and 2 μg/mL internal standard ([…]). The sample was briefly vortexed and centrifuged (12 minutes, 6°C), with transfer of 400 μL of supernatant to a clean test tube. The sample was evaporated to dryness under nitrogen, reconstituted in 50 μL of methanol:water (75:25), and 20 μL was injected onto the column. The concentration of primary analyte (IM) and internal standard (IS) d4-estrone were determined using a Shimadzu Nexera X2 liquid chromatography system coupled with a SPD-M30A UV-VIS diode array detector. The liquid chromatography separation was performed on a Prodigy ODS-3V C18 column, 250 × 4.6 mm, 5 μm. The mobile phase consisted of 35% water and 65% Methanol (Optima LC-MS grade) delivered at a flow rate of 0.85 mL/min. Retention times for IM and IS were 13 and 15 minutes, respectively, with detection at 280 nm. The IM peak identity was confirmed using the complete 240–600 nm absorbance spectra. The standard concentration curve was linear over the range of 0.025 μg/mL– 4.0 μg/mL using regression plots of IM to internal standard peak area ratios versus drug concentrations derived with 1/x2 weighting. […] Non-compartmental pharmacokinetic parameters were determined from pooled average data at each time point using Phoenix WinNonlin v6.4 (Certara, St. Louis, MO).
We evaluated the pharmacokinetics of IM in NSG mice following a single i.p. injection of 40 mg/kg, a dose that inhibited plasma HIV RNA levels by 2 log 10 units in our previous study. Data (S1 Table) were plotted on concentration-time curves and pharmacokinetic parameter values determined (Fig 1). […] Thus, IM concentrations above HIV EC50 values are rapidly achieved and maintained for > 3 h following i.p. injection of 40 mg/kg IM.
Fig 1 Pharmacokinetics of IM in mice. NSG mice (n = 16) were i.p. injected with 40 mg/kg IM. Blood samples were obtained pre-dose and at 5, 15, 30, 60, 120, 180, 240 and 300 minutes after injection using a sparse sampling design (n = 2 samples per mouse, n = 4 samples per time point). Separated plasma was further extracted and processed for analysis, and IM concentrations were determined using HPLC analysis.

HIV-1 NL4-3 = assay: Drug susceptibility assay in PHA-activated PBMCs (HIV p24 ELISA day 7); format: cell-based; details: PBMCs, NL4-3, day 7
Description: The ARTs tenofovir, raltegravir and indinavir were obtained from the NIH AIDS Research and Reference Reagent Program (Gaithersburg, MD). Drug susceptibility assays were performed in PBMCs as previously. Briefly, donor PBMCs were activated by culture with phytohemagglutinin (PHA) for 3 days. Activated PBMCs were infected with HIV (M.O.I of 0.001) for 2 hours in the absence of IM or ARTs, washed to remove non-adsorbed virus, and plated in culture medium containing IL-2 and various dilutions of IM and ARTs alone and in combination. On day 3, fresh medium with fresh drug was added to the cultures. On day 7, cultures were evaluated for HIV production by measuring HIV p24 levels in the culture supernatants by ELISA (PerkinElmer Life Sciences, Inc., Boston, Massachusetts). Data were normalized to p24 levels in drug untreated controls (100%) and EC50 values determined by fitting the data to sigmoidal dose-response (variable slope) curves using GraphPad Prism 5.0 software.
A potential use of CDK9 inhibitor for the treatment of HIV will probably be in combination with ARTs from other classes. We thus evaluated the antiviral interaction between IM and ARTs from the NRTI, integrase and protease inhibitor classes in PBMCs infectivity assays in vitro. We used the virus strain HIV-1 NL4-3 to ensure a robust viral replication in the assays. Although HIV-1 NL4-3 differs from HIV-1 BaL in usage of coreceptor for cell entry, it is expected to have similar sensitivity to the tested ARTs. […] These enhancements of ART potencies by IM are consistent with targeting of different steps of the HIV cycle by IM and the tested ARTs.

O=C1Nc2ccccc2/C1=C1/Nc2ccccc2/C1=N\O [IM, Indirubin 3’-monoxime]
Conc (plasma IM), individual mice ([1]; 5 min after i.p. 40 mg/kg): 1056 ng/mL and 1492 ng/mL and 1336 ng/mL and 54 ng/mL | Conc (plasma IM), individual mice ([1]; 15 min after i.p. 40 mg/kg): 3005 ng/mL and 2975 ng/mL and 3996 ng/mL and 2773 ng/mL | Conc (plasma IM), individual mice ([1]; 30 min after i.p. 40 mg/kg): 4918 ng/mL and 2550 ng/mL and 29 ng/mL and 3217 ng/mL | Conc (plasma IM), individual mice ([1]; 60 min after i.p. 40 mg/kg): 2983 ng/mL and 2619 ng/mL and 2828 ng/mL and 2005 ng/mL | Conc (plasma IM), individual mice ([1]; 120 min after i.p. 40 mg/kg): 4276 ng/mL and 1171 ng/mL and 1632 ng/mL and 14 ng/mL | Conc (plasma IM), individual mice ([1]; 180 min after i.p. 40 mg/kg): 380 ng/mL and 1062 ng/mL and 56 ng/mL and 217 ng/mL | Conc (plasma IM), individual mice ([1]; 240 min after i.p. 40 mg/kg): 285 ng/mL and 58 ng/mL and 14 ng/mL and 376 ng/mL | Conc (plasma IM), individual mice ([1]; 300 min after i.p. 40 mg/kg): 44 ng/mL and 79 ng/mL and 83 ng/mL and 35 ng/mL | AUC ([1]; single i.p. 40 mg/kg, plasma): 370 ± 64 µg·min/mL | elimination t1/2 ([1]; single i.p. 40 mg/kg, plasma): 42.4 min | maximum concentration of IM in plasma (Cmax) ([1]; single i.p. 40 mg/kg, plasma): 3190 ± 270 ng/mL | Cmax ([1]; single i.p. 40 mg/kg, plasma, converted from μg/mL): 11.5 ± 0.97 µM | P24 (HIV-1 NL4-3; IM alone (IND 0 nM), IND experiment, untreated control 55.00): 4.00 ng/mL | P24 (HIV-1 NL4-3; IM alone (RAL 0 nM), RAL experiment, untreated control 24.0): 8.00 ng/mL | P24 (HIV-1 NL4-3; IM alone (TDF 0 µM), TDF experiment, untreated control 50.0): 10.0 ng/mL
